Results published in patent US11458121B2, “Therapeutic compounds and methods to treat infection” (priority 2017, dated 2022).
In brackets after ≈: the same amount, converted by molar mass. Like-named read-outs stand apart in the source and are kept apart here.

Columns and labels:
P. aeruginosa PAO1 [1] = test: Intrinsic MIC assay (CLSI broth microdilution); format: cell-based; settings: Pseudomonas aeruginosa, read-out: Antibiotic Activity Against P. aeruginosa Intrinsic MIC
Text: As used herein, the term “minimum inhibitory concentration (MIC)” refers to the lowest concentration of a compound (e.g., an antibiotic) that prevents visible growth of a bacterium. Assays for measuring the MIC of a compound are known in the art, for example, as described herein. As used herein, the term “intrinsic MIC” refers the MIC of a compound (e.g., an antibiotic) for the particular bacterial species that has not been pre-exposed to the compound. Intrinsic MIC Assays MIC assays were conducted in accordance with Clinical and Laboratory Standards Institute (CLSI) guidelines for broth microdilution. A 96-well plate containing cation-adjusted Mueller-Hinton (CAMH broth with 2-fold serial dilution of compounds was inoculated with log-phase bacterial at 5×10^5 CFU/mL. The final volume in each well was 100 μL. Each compound was tested in duplicate. The microtiter plates were incubated in an aerobic environment for 18 hours at 37° C. Then the bacterial growth was tested by reading the plate with a VersaMax plate reader (Molecular Devices, Inc.) at 600 nm. The MIC was defined as the lowest compound concentration that inhibited 90% of bacteria growth. The intrinsic MIC of the experimental EPIs was tested with the method described. […] The following Gram-negative bacterial strains were included in these assays: Pseudomonas aeruginosa PAO1

E. coli 25922 = test: Intrinsic MIC assay (CLSI broth microdilution); format: cell-based, Escherichia coli; settings: read-out: Antibiotic Activity Against E. coli Intrinsic MIC
Text: As used herein, the term “minimum inhibitory concentration (MIC)” refers to the lowest concentration of a compound (e.g., an antibiotic) that prevents visible growth of a bacterium. Assays for measuring the MIC of a compound are known in the art, for example, as described herein. As used herein, the term “intrinsic MIC” refers the MIC of a compound (e.g., an antibiotic) for the particular bacterial species that has not been pre-exposed to the compound. Intrinsic MIC Assays MIC assays were conducted in accordance with Clinical and Laboratory Standards Institute (CLSI) guidelines for broth microdilution. A 96-well plate containing cation-adjusted Mueller-Hinton (CAMH broth with 2-fold serial dilution of compounds was inoculated with log-phase bacterial at 5×10^5 CFU/mL. The final volume in each well was 100 μL. Each compound was tested in duplicate. The microtiter plates were incubated in an aerobic environment for 18 hours at 37° C. Then the bacterial growth was tested by reading the plate with a VersaMax plate reader (Molecular Devices, Inc.) at 600 nm. The MIC was defined as the lowest compound concentration that inhibited 90% of bacteria growth. The intrinsic MIC of the experimental EPIs was tested with the method described. […] The following Gram-negative bacterial strains were included in these assays: Escherichia coli ATCC 25922

P. aeruginosa PAO1 [2] = test: MIC assay in the presence of a bacterial efflux pump inhibitor (EPI); format: cell-based, Pseudomonas aeruginosa; settings: P. aeruginosa PAO1; for Enhancement (intrinsic MIC versus MIC with EPI): fold enhancement with 12.5 ug/ml EPI; for Antibiotic Activity Against P. aeruginosa MIC with EPI: with 12.5 ug/ml of EPI (2S,4R)-4-(ammoniomethyl)-2-((6-(4-fluorophenyl)-1H-indole-2-carboxamido)methyl)pyrrolidin-1-ium
Method: The ability of a compound to produce an antibiotic effect can be determined using a method as described in Example 42. […] MIC assays were conducted in accordance with Clinical and Laboratory Standards Institute (CLSI) guidelines for broth microdilution. A 96-well plate containing cation-adjusted Mueller-Hinton (CAMH broth with 2-fold serial dilution of compounds was inoculated with log-phase bacterial at 5×10^5 CFU/mL. The final volume in each well was 100 μL. Each compound was tested in duplicate. The microtiter plates were incubated in an aerobic environment for 18 hours at 37° C. Then the bacterial growth was tested by reading the plate with a VersaMax plate reader (Molecular Devices, Inc.) at 600 nm. The MIC was defined as the lowest compound concentration that inhibited 90% of bacteria growth. MIC Assays in the Presence of a Bacterial Efflux Inhibitor The EPI assay for the purposes of these studies represents a MIC assay in which the MIC of the antibiotic against the bacteria is tested in the presence of an experimental efflux pump inhibitor (EPI). The highest concentration of the EPI present in the assay typically is ½ of the intrinsic MIC of the compound. […] Using serial dilutions of the EPI, its enhancement of antibiotic activity was then evaluated. The relative EPI activity was decided by comparing the MIC of the antibiotic in the presence of the EPI compound with the intrinsic MIC of the antibiotic alone. For comparative purposes, we generally used EPIs at concentration of 12.5 and 6.25 μg/ml against varying concentration of our test antibiotic.

[3] = 18 h, P. aeruginosa PAO1, compound alone, without EPI, MIC = lowest concentration inhibiting 90% of growth
[4] = Escherichia coli, 18 h, E. coli 25922, compound alone, without EPI

MIC (P. aeruginosa PAO1 [1]; [3]) [µg/mL]	MIC (E. coli 25922; [4]) [µg/mL]	Structure (SMILES)	Enhancement (intrinsic MIC versus MIC with EPI) (P. aeruginosa PAO1 [2])	Antibiotic Activity Against P. aeruginosa MIC with EPI (P. aeruginosa PAO1 [2]) [µg/mL]	MIC (P. aeruginosa PAO1 [1]; PAO1, 18 h) [µg/mL]	MIC (E. coli 25922; Escherichia coli, 25922, 18 h) [µg/mL]
256 (≈ 917 µM)	32 (≈ 115 µM)	CNC1CCCc2c1[nH]c1ccc(Br)cc21 (stereo not shown) [Example 7, 6-Bromo-N-methyl-2,3,4,9-tetrahydro-1H-carbazol-1-amine]	(32x)	8		
> 256	> 256	O=C(NC1CCCc2c1[nH]c1ccc(Br)cc21)c1ccccc1 (stereo not shown) [Example 9, N-(6-Bromo-2,3,4,9-tetrahydro-1H-carbazol-1-yl)benzamide]	(4x)	>64		
> 256	> 256	CC(=O)NC1CCCc2c1[nH]c1ccc(Br)cc21 (stereo not shown) [Example 8, N-(6-Bromo-2,3,4,9-tetrahydro-1H-carbazol-1-yl)acetamide]	(4x)	>64		
> 256	128 (≈ 381 µM)	CN(C)C(=O)C1Cc2c([nH]c3ccc(Br)cc23)C(N)C1 (stereo not shown) [Example 33, 1-Amino-6-bromo-N,N-dimethyl-2,3,4,9-tetrahydro-1H-carbazole-3-carboxamide]	(>2x)	128		
256 (≈ 917 µM)	64 (≈ 229 µM)	Cn1c2c(c3cc(Br)ccc31)CCCC2N (stereo not shown) [Example 19, 6-Bromo-9-methyl-2,3,4,9-tetrahydro-1H-carbazol-1-amine]	(4x)	64		
> 256	> 256	NC1CC(C(=O)O)Cc2c1[nH]c1ccc(Br)cc21 (stereo not shown) [Example 28, 1-Amino-6-bromo-2,3,4,9-tetrahydro-1H-carb azole-3-carboxylic Acid]	(>1x)	256		
> 256	16 (≈ 48.4 µM)	NC1CCCc2c1[nH]c1ccc(-c3ccc(C(F)(F)F)cc3)cc21 (stereo not shown) [Example 4, 6-(4-(Trifluoromethyl)phenyl)-2,3,4,9-tetrahydro-1H-carbazol-1-amine]	(>64x)	4		
128 (≈ 580 µM)	16 (≈ 72.5 µM)	NC1CCCc2c1[nH]c1ccc(Cl)cc21 (stereo not shown) [Example 13, 6-Chloro-2,3,4,9-tetrahydro-1H-carbazol-1-amine]	(16x)	1		

Second part, the molecule before the results:

Structure (SMILES)	MIC (P. aeruginosa PAO1 [1]; [3]) [µg/mL]	MIC (E. coli 25922; [4]) [µg/mL]	Enhancement (intrinsic MIC versus MIC with EPI) (P. aeruginosa PAO1 [2])	Antibiotic Activity Against P. aeruginosa MIC with EPI (P. aeruginosa PAO1 [2]) [µg/mL]	MIC (P. aeruginosa PAO1 [1]; PAO1, 18 h) [µg/mL]	MIC (E. coli 25922; Escherichia coli, 25922, 18 h) [µg/mL]
CC1(C)CCC(N)c2[nH]c3ccc(Br)cc3c21 (stereo not shown) [Example 24, 6-Bromo-4,4-dimethyl-2,3,4,9-tetrahydro-1H-carbazol-1-amine]			(4x)	16	64 (≈ 218 µM)	16 (≈ 54.6 µM)
CC(C)C1Cc2c([nH]c3ccc(Br)cc23)C(N)C1 (stereo not shown) [Example 30, 6-Bromo-3-isopropyl-2,3,4,9-tetrahydro-1H-carbazol-1-amine]	64 (≈ 208 µM)	4 (≈ 13 µM)	(8x)	8		
NC1CCCc2c1[nH]c1ccc(F)cc21 (stereo not shown) [Example 12, 6-Fluoro-2,3,4,9-tetrahydro-1H-carbazol-1-amine]	128 (≈ 627 µM)	64 (≈ 313 µM)	(64x)	2		
NC1CCCc2c1[nH]c1c(Br)cccc21 (stereo not shown) [Example 17, 8-Bromo-2,3,4,9-tetrahydro-1H-carbazol-1-amine]	> 256	64 (≈ 241 µM)	(>2x)	128		
NCCCNC1CCCc2c1[nH]c1ccc(Br)cc21 (stereo not shown) [Example 40, N^1-(6-Bromo-2,3,4,9-tetrahydro-1H-carbazol-1-yl)propane-1,3-diamine]	32 (≈ 99.3 µM)	32 (≈ 99.3 µM)				
NC1CCCc2c1[nH]c1cc(Br)ccc21 (stereo not shown) [Example 5a, 7-Bromo-2,3,4,9-tetrahydro-1H-carbazol-1-amine]	64 (≈ 241 µM)	32 (≈ 121 µM)	(64x)	1		
CCOC(=O)C1Cc2c([nH]c3ccc(Br)cc23)C(N)C1 (stereo not shown) [Example 27, Ethyl 1-amino-6-bromo-2,3,4,9-tetrahydro-1H-carbazole-3-carboxylate]	> 256	16 (≈ 47.4 µM)	(>8x)	32		
Cl.NC(=O)C1Cc2c([nH]c3ccc(Br)cc23)C(N)C1 (stereo not shown) [Example 34, 1-Amino-6-bromo-2,3,4,9-tetrahydro-1H-carbazole-3-carboxamide Hydrogen Chloride Salt]	256	128		256		
NC1CCCc2c1[nH]c1ccc(OC(F)(F)F)cc21 (stereo not shown) [Example 15, 6-(Trifluoromethoxy)-2,3,4,9-tetrahydro-1H-carbazol-1-amine]	128 (≈ 474 µM)	64 (≈ 237 µM)	(8x)	16		
CC(C)(C)C1Cc2c([nH]c3ccc(Br)cc23)C(N)C1 (stereo not shown) [Example 36, 6-Bromo-3-(tert-butyl)-2,3,4,9-tetrahydro-1H-carbazol-1-amine]	> 256	8 (≈ 24.9 µM)	(>32x)	8		
NC1CC(c2ccccc2)Cc2c1[nH]c1ccc(Br)cc21 (stereo not shown) [Example 35, 6-Bromo-3-phenyl-2,3,4,9-tetrahydro-1H-carbazol-1-amine]	> 256	8 (≈ 23.4 µM)	(>32x)	8		
